Reference: publication PMC5218480 (PLoS ONE, 2017)

Test system: MV-4-11 cells
Assay: Gene expression microarray analysis (Affymetrix PrimeView) and GSEA
Format: cell-based, human
Design: RFU PODN (11730768_x_at) / Fold change /veh PODN (11730768_x_at) / RFU LINC00158 (11744669_a_at) / Fold change /veh LINC00158 (11744669_a_at) / RFU DUSP10 (11751237_a_at) / Fold change /veh DUSP10 (11751237_a_at) / RFU ID3 (11757404_x_at) / Fold change /veh ID3 (11757404_x_at) / RFU PLEKHG5 (11737974_s_at) / Fold change /veh PLEKHG5 (11737974_s_at) / RFU LRRC4B (11730491_at) / Fold change /veh LRRC4B (11730491_at) / RFU GIMAP4 (11747438_a_at) / Fold change /veh GIMAP4 (11747438_a_at) / RFU KRT8 (11758183_x_at) / Fold change /veh KRT8 (11758183_x_at) / RFU CNN1 (11734310_a_at) / Fold change /veh CNN1 (11734310_a_at) / RFU VPS37D (11726825_at) / Fold change /veh VPS37D (11726825_at) / RFU C10orf10 (11716522_x_at) / Fold change /veh C10orf10 (11716522_x_at) / RFU KIR2DL2 /// KIR2DL4 /// KIR2DL5A /// KIR2DL5B /// KIR2DS1 /// KIR2DS2 /// KIR2DS3 /// KIR2DS4 /// KIR3DL3 /// KIR3DL3 /// KIR3DS1 (11738374_at) / Fold change /veh KIR2DL2 /// KIR2DL4 /// KIR2DL5A /// KIR2DL5B /// KIR2DS1 /// KIR2DS2 /// KIR2DS3 /// KIR2DS4 /// KIR3DL3 /// KIR3DL3 /// KIR3DS1 (11738374_at) / RFU C1QL1 (11718748_at) / Fold change /veh C1QL1 (11718748_at) / RFU TMPRSS4 (11747572_a_at) / Fold change /veh TMPRSS4 (11747572_a_at) / RFU HAMP (11756126_x_at) / Fold change /veh HAMP (11756126_x_at) / RFU RNFT2 (11725882_a_at) / Fold change /veh RNFT2 (11725882_a_at) / RFU NR4A2 (11747474_a_at) / Fold change /veh NR4A2 (11747474_a_at) / RFU ABCC12 (11746883_a_at) / Fold change /veh ABCC12 (11746883_a_at) / RFU TMEM136 (11760407_x_at) / Fold change /veh TMEM136 (11760407_x_at) / RFU CLDN22 /// WWC2 (11732394_at) / Fold change /veh CLDN22 /// WWC2 (11732394_at) / RFU HLA-DPB1 (11760878_x_at) / Fold change /veh HLA-DPB1 (11760878_x_at) / RFU SPINT1 (11716480_a_at) / Fold change /veh SPINT1 (11716480_a_at) / RFU GAP43 (11754022_s_at) / Fold change /veh GAP43 (11754022_s_at) / RFU A4GNT (11735810_at) / Fold change /veh A4GNT (11735810_at) / RFU PRB3 (11715151_x_at) / Fold change /veh PRB3 (11715151_x_at) / RFU TUBB4B (11761932_at) / Fold change /veh TUBB4B (11761932_at) / RFU CAPN14 (11732068_a_at) / Fold change /veh CAPN14 (11732068_a_at) / RFU TMCC2 (11721928_a_at) / Fold change /veh TMCC2 (11721928_a_at) / RFU IRGQ (11745062_a_at) / Fold change /veh IRGQ (11745062_a_at) / RFU FAM174B (11720279_a_at) / Fold change /veh FAM174B (11720279_a_at) / RFU TMPRSS4 (11748680_a_at) / Fold change /veh TMPRSS4 (11748680_a_at) / RFU FAM212B (11763350_a_at) / Fold change /veh FAM212B (11763350_a_at) / RFU PLEKHG5 (11743358_a_at) / Fold change /veh PLEKHG5 (11743358_a_at) / RFU ZSCAN30 (11745921_a_at) / Fold change /veh ZSCAN30 (11745921_a_at) / RFU CMKLR1 (11741424_a_at) / Fold change /veh CMKLR1 (11741424_a_at) / RFU LOC101060620 /// MAPK8IP1 (11723275_at) / Fold change /veh LOC101060620 /// MAPK8IP1 (11723275_at) / RFU SPTSSB (11747773_x_at) / Fold change /veh SPTSSB (11747773_x_at) / RFU PRSS12 (11739890_at) / Fold change /veh PRSS12 (11739890_at) / RFU BIN1 (11741810_x_at) / Fold change /veh BIN1 (11741810_x_at) / RFU WNT11 (11732464_a_at) / Fold change /veh WNT11 (11732464_a_at) / RFU C10orf10 (11716521_a_at) / Fold change /veh C10orf10 (11716521_a_at) / RFU C5orf56 (11738089_at) / Fold change /veh C5orf56 (11738089_at) / RFU CYB561 (11721691_x_at) / Fold change /veh CYB561 (11721691_x_at) / RFU ANKRD19P (11752326_a_at) / Fold change /veh ANKRD19P (11752326_a_at) / RFU OR2T12 /// OR2T33 /// OR2T8 (11738714_s_at) / Fold change /veh OR2T12 /// OR2T33 /// OR2T8 (11738714_s_at) / RFU VCAN (11748164_a_at) / Fold change /veh VCAN (11748164_a_at) / RFU JSRP1 (11732532_at) / Fold change /veh JSRP1 (11732532_at) / RFU KRTAP10-11 (11738290_x_at) / Fold change /veh KRTAP10-11 (11738290_x_at) / RFU MYO3A (11730013_a_at) / Fold change /veh MYO3A (11730013_a_at) / RFU EBF3 (11725865_a_at) / Fold change /veh EBF3 (11725865_a_at) / RFU CAMK2N1 (11719241_x_at) / Fold change /veh CAMK2N1 (11719241_x_at) / RFU C5orf56 (11738088_a_at) / Fold change /veh C5orf56 (11738088_a_at) / RFU OLFML3 (11715873_a_at) / Fold change /veh OLFML3 (11715873_a_at) / RFU LOC100653217 /// NTM (11731650_a_at) / Fold change /veh LOC100653217 /// NTM (11731650_a_at) / RFU MAPK11 (11762145_a_at) / Fold change /veh MAPK11 (11762145_a_at) / RFU FIZ1 (11724087_x_at) / Fold change /veh FIZ1 (11724087_x_at) / RFU OASL (11726364_x_at) / Fold change /veh OASL (11726364_x_at) / RFU SOX15 (11748057_x_at) / Fold change /veh SOX15 (11748057_x_at) / RFU CD79A (11719716_a_at) / Fold change /veh CD79A (11719716_a_at) / RFU HIST1H1D (11736915_at) / Fold change /veh HIST1H1D (11736915_at) / RFU CASKIN2 (11723855_a_at) / Fold change /veh CASKIN2 (11723855_a_at) / RFU LOC730098 (11760151_x_at) / Fold change /veh LOC730098 (11760151_x_at) / RFU OR4N2 (11742367_at) / Fold change /veh OR4N2 (11742367_at) / RFU PRRT2 (11749266_a_at) / Fold change /veh PRRT2 (11749266_a_at) / RFU SNX32 (11753110_a_at) / Fold change /veh SNX32 (11753110_a_at) / RFU CDHR5 (11726645_a_at) / Fold change /veh CDHR5 (11726645_a_at) / RFU RCAN1 (11760418_a_at) / Fold change /veh RCAN1 (11760418_a_at) / RFU FAM167A (11723789_a_at) / Fold change /veh FAM167A (11723789_a_at) / RFU FAM26E (11764081_at) / Fold change /veh FAM26E (11764081_at) / RFU ISYNA1 (11749810_s_at) / Fold change /veh ISYNA1 (11749810_s_at) / RFU ACY1 (11761880_at) / Fold change /veh ACY1 (11761880_at) / RFU 11764098_at / Fold change /veh 11764098_at / RFU SAMD14 (11745864_x_at) / Fold change /veh SAMD14 (11745864_x_at) / RFU NPB (11741838_a_at) / Fold change /veh NPB (11741838_a_at) / RFU TMPRSS6 (11731388_a_at) / Fold change /veh TMPRSS6 (11731388_a_at) / RFU KRTAP10-2 (11738614_at) / Fold change /veh KRTAP10-2 (11738614_at) / RFU ARHGAP8 /// PRR5-ARHGAP8 (11727945_x_at) / Fold change /veh ARHGAP8 /// PRR5-ARHGAP8 (11727945_x_at) / RFU KRTAP5-7 /// NADSYN1 (11734609_at) / Fold change /veh KRTAP5-7 /// NADSYN1 (11734609_at) / RFU RASL12 (11751679_a_at) / Fold change /veh RASL12 (11751679_a_at) / RFU CDKN2B (11736163_a_at) / Fold change /veh CDKN2B (11736163_a_at) / RFU PRF1 (11729649_at) / Fold change /veh PRF1 (11729649_at) / RFU, ZNF638 /// ZNF638-IT1 / Fold change vs veh, ZNF638 /// ZNF638-IT1 / RFU, PANK3 / Fold change vs veh, PANK3 / RFU, SH3YL1 / Fold change vs veh, SH3YL1 / RFU, ZEB2 / Fold change vs veh, ZEB2 / RFU, NRIP1 / Fold change vs veh, NRIP1 / RFU, PTTG1IP / Fold change vs veh, PTTG1IP / RFU, CAPN2 / Fold change vs veh, CAPN2 / RFU, MED14 / Fold change vs veh, MED14 / RFU, SNORA58 / Fold change vs veh, SNORA58 / RFU, C1orf63 / Fold change vs veh, C1orf63 / RFU, LRRFIP1 / Fold change vs veh, LRRFIP1 / RFU, NDUFAF7 / Fold change vs veh, NDUFAF7 / RFU, SLC12A2 / Fold change vs veh, SLC12A2 / RFU, IBTK / Fold change vs veh, IBTK / RFU, ESF1 / Fold change vs veh, ESF1 / Fold change vs veh, TMEM50B / RFU, TAOK1 / Fold change vs veh, TAOK1 / RFU, ACBD3 / Fold change vs veh, ACBD3 / RFU, TMA16 / Fold change vs veh, TMA16 / RFU, RWDD3 / Fold change vs veh, RWDD3 / RFU, BCAT1 / Fold change vs veh, BCAT1 / RFU, EDEM3 / Fold change vs veh, EDEM3 / RFU, TMEM33 / Fold change vs veh, TMEM33 / RFU, WDR75 / Fold change vs veh, WDR75 / RFU, AHCTF1 / Fold change vs veh, AHCTF1 / RFU, TFRC / Fold change vs veh, TFRC / RFU, ZDHHC17 / Fold change vs veh, ZDHHC17 / RFU, NOM1 / Fold change vs veh, NOM1 / RFU, ARL8B / Fold change vs veh, ARL8B / RFU, ZBTB11 / Fold change vs veh, ZBTB11 / RFU, TAMM41 / Fold change vs veh, TAMM41 / RFU, KIAA1704 /// LOC100996395 / Fold change vs veh, KIAA1704 /// LOC100996395 / RFU, ING1 / Fold change vs veh, ING1 / RFU, TRMT61B / Fold change vs veh, TRMT61B / RFU, FUBP3 / Fold change vs veh, FUBP3 / RFU, TP53 / Fold change vs veh, TP53 / RFU, TNKS2 / Fold change vs veh, TNKS2 / RFU, ZFP14 / Fold change vs veh, ZFP14 / RFU, ACTR2 / Fold change vs veh, ACTR2 / RFU, PPP3R1 / Fold change vs veh, PPP3R1 / RFU, PIK3R1 / Fold change vs veh, PIK3R1 / RFU, HNRNPA1 / Fold change vs veh, HNRNPA1 / RFU, RNF170 / Fold change vs veh, RNF170 / RFU, ZNF28 / Fold change vs veh, ZNF28 / RFU, RNGTT / Fold change vs veh, RNGTT / RFU, OGT / Fold change vs veh, OGT / RFU, BRD1 / Fold change vs veh, BRD1 / RFU, MARS / Fold change vs veh, MARS / RFU, ZNF655 / Fold change vs veh, ZNF655 / RFU, FAHD1 / Fold change vs veh, FAHD1 / RFU, BDP1 / Fold change vs veh, BDP1 / RFU, LRRCC1 / Fold change vs veh, LRRCC1 / RFU, ARID1A / Fold change vs veh, ARID1A / RFU, ZNF146 / Fold change vs veh, ZNF146 / RFU, ZNF330 / Fold change vs veh, ZNF330 / RFU, GPN3 / Fold change vs veh, GPN3 / RFU, C9orf123 / Fold change vs veh, C9orf123 / RFU, N4BP2L2 / Fold change vs veh, N4BP2L2 / RFU, ARFIP1 / Fold change vs veh, ARFIP1 / RFU, FAM179B / Fold change vs veh, FAM179B / RFU, BCL10 / Fold change vs veh, BCL10 / RFU, UHRF1BP1L / Fold change vs veh, UHRF1BP1L / RFU, BET1 / Fold change vs veh, BET1 / RFU, CNOT2 / Fold change vs veh, CNOT2 / RFU, ZNF268 / Fold change vs veh, ZNF268 / Fold change vs veh, ZNF507 / RFU, DGCR2 / Fold change vs veh, DGCR2 / RFU, WDSUB1 / Fold change vs veh, WDSUB1 / Fold change vs veh, HSP90B1 /// MIR3652 / RFU, ADSS / Fold change vs veh, ADSS / RFU, GK / Fold change vs veh, GK / RFU, ZNF148 / Fold change vs veh, ZNF148 / RFU, TAF9 / Fold change vs veh, TAF9 / RFU, SLC1A5 / Fold change vs veh, SLC1A5 / RFU, SLMO2 / Fold change vs veh, SLMO2 / RFU, ABCC4 / Fold change vs veh, ABCC4 / RFU, LOC101060439 /// RAP1B / Fold change vs veh, LOC101060439 /// RAP1B / RFU, RFX7 / Fold change vs veh, RFX7 / RFU, GTPBP10 / Fold change vs veh, GTPBP10 / RFU, CNEP1R1 / Fold change vs veh, CNEP1R1 / RFU, BIVM-ERCC5 /// ERCC5 / Fold change vs veh, BIVM-ERCC5 /// ERCC5 / RFU, ILF3 / Fold change vs veh, ILF3 / RFU 11762660_at / Fold change /veh 11762660_at / RFU VCAN (11757783_s_at) / Fold change /veh VCAN (11757783_s_at) / RFU DDX43 (11728927_at) / Fold change /veh DDX43 (11728927_at) / RFU KRT8 (11758188_x_at) / Fold change /veh KRT8 (11758188_x_at) / RFU NKD1 (11759106_at) / Fold change /veh NKD1 (11759106_at) / RFU SRD5A1 (11742802_a_at) / Fold change /veh SRD5A1 (11742802_a_at) / RFU TPSAB1 /// TPSB2 (11721975_s_at) / Fold change /veh TPSAB1 /// TPSB2 (11721975_s_at) / RFU GSTM3 (11746129_a_at) / Fold change /veh GSTM3 (11746129_a_at) / RFU IL23R (11737362_x_at) / Fold change /veh IL23R (11737362_x_at) / RFU TMEM51 (11727254_a_at) / Fold change /veh TMEM51 (11727254_a_at) / RFU PIWIL2 (11732686_x_at) / Fold change /veh PIWIL2 (11732686_x_at) / RFU ORM1 (11744905_x_at) / Fold change /veh ORM1 (11744905_x_at) / RFU CCDC152 (11743942_at) / Fold change /veh CCDC152 (11743942_at) / RFU ECM1 (11717891_a_at) / Fold change /veh ECM1 (11717891_a_at) / RFU IL23R (11748794_a_at) / Fold change /veh IL23R (11748794_a_at) / RFU TNFAIP8L3 (11732012_x_at) / Fold change /veh TNFAIP8L3 (11732012_x_at) / RFU MBOAT4 (11741988_at) / Fold change /veh MBOAT4 (11741988_at) / RFU 11764193_at / Fold change /veh 11764193_at / RFU TMEM53 (11763286_at) / Fold change /veh TMEM53 (11763286_at) / RFU MAGEB2 (11727129_at) / Fold change /veh MAGEB2 (11727129_at) / RFU TMEM200A (11744735_a_at) / Fold change /veh TMEM200A (11744735_a_at) / RFU CCDC152 (11751479_a_at) / Fold change /veh CCDC152 (11751479_a_at) / RFU FAM211A (11726209_a_at) / Fold change /veh FAM211A (11726209_a_at) / RFU RGS16 (11746705_a_at) / Fold change /veh RGS16 (11746705_a_at) / RFU VCAN (11755009_s_at) / Fold change /veh VCAN (11755009_s_at) / RFU RHOB (11743442_s_at) / Fold change /veh RHOB (11743442_s_at) / RFU RGS16 (11720943_a_at) / Fold change /veh RGS16 (11720943_a_at) / RFU RGS16 (11720944_at) / Fold change /veh RGS16 (11720944_at) / RFU, VPS4B / Fold change vs veh, VPS4B / RFU, CREB1 / Fold change vs veh, CREB1 / RFU, DNAJC13 / Fold change vs veh, DNAJC13 / RFU, GNAQ / Fold change vs veh, GNAQ / RFU, CDK5R1 / Fold change vs veh, CDK5R1 / RFU, ZRANB3 / Fold change vs veh, ZRANB3 / RFU, CUL4A / Fold change vs veh, CUL4A / RFU, CCNY / Fold change vs veh, CCNY / RFU, UFL1 / Fold change vs veh, UFL1 / RFU, COG3 / Fold change vs veh, COG3 / RFU, DIAPH2 / Fold change vs veh, DIAPH2 / RFU, SKA2 / Fold change vs veh, SKA2 / RFU, AFF3 / Fold change vs veh, AFF3 / RFU, LMF1 / Fold change vs veh, LMF1 / RFU, IPO11 / Fold change vs veh, IPO11 / RFU, DFFB / Fold change vs veh, DFFB / RFU, FOXP1 / Fold change vs veh, FOXP1 / RFU, CARD8 / Fold change vs veh, CARD8 / RFU, STRN3 / Fold change vs veh, STRN3 / RFU, ADK / Fold change vs veh, ADK / RFU, RASSF2 / Fold change vs veh, RASSF2 / RFU, WIPF1 / Fold change vs veh, WIPF1 / RFU, LARP1B / Fold change vs veh, LARP1B / RFU, RASA1 / Fold change vs veh, RASA1 / RFU, RB1 / Fold change vs veh, RB1 / RFU, PPFIA1 / Fold change vs veh, PPFIA1 / RFU, MAT2A / Fold change vs veh, MAT2A / RFU, CCT5 / Fold change vs veh, CCT5 / RFU, WDR92 / Fold change vs veh, WDR92 / RFU, CUX1 / Fold change vs veh, CUX1 / RFU, TTC7A / Fold change vs veh, TTC7A / RFU, TMEM135 / Fold change vs veh, TMEM135 / RFU, DEPTOR / Fold change vs veh, DEPTOR / RFU, CPM / Fold change vs veh, CPM / RFU, DNAJB6 / Fold change vs veh, DNAJB6 / RFU, CACNA2D3 / Fold change vs veh, CACNA2D3 / RFU, DTX4 / Fold change vs veh, DTX4 / RFU, TFCP2 / Fold change vs veh, TFCP2 / RFU, GMCL1 /// GMCL1P1 / Fold change vs veh, GMCL1 /// GMCL1P1 / RFU, AEBP2 / Fold change vs veh, AEBP2 / RFU, SNHG1 /// SNORD22 /// SNORD25 /// SNORD26 /// SNORD27 /// SNORD28 /// SNORD29 /// SNORD31 / Fold change vs veh, SNHG1 /// SNORD22 /// SNORD25 /// SNORD26 /// SNORD27 /// SNORD28 /// SNORD29 /// SNORD31 / Fold change (Aza/veh), C12orf56 (ProbeSet 11735607_a_at) / Fold change (ACY-1035/veh), C12orf56 (ProbeSet 11735607_a_at) / Fold change (Aza/veh), FGFR1OP (ProbeSet 11751329_s_at) / Fold change (ACY-1035/veh), FGFR1OP (ProbeSet 11751329_s_at) / Fold change (Aza/veh), VPS36 (ProbeSet 11739960_a_at) / Fold change (ACY-1035/veh), VPS36 (ProbeSet 11739960_a_at) / RFU SYPL1 (11715823_x_at) / Fold change /veh SYPL1 (11715823_x_at) / RFU IGFBP7 (11715501_s_at) / Fold change /veh IGFBP7 (11715501_s_at) / RFU REEP3 (11722064_at) / Fold change /veh REEP3 (11722064_at) / RFU IGLL1 (11728026_x_at) / Fold change /veh IGLL1 (11728026_x_at): dose or concentration left out as unconfirmed
Conditions: MV-4-11 cells, 48 hours

Compound: Nc1ccc(-c2cccs2)cc1NC(=O)c1ccc2c(c1)cc(C1CC1)n2CCN1CCOCC1 [ACY-1035]
- Fold change /veh PRB3 (11715151_x_at): 0.95
